Consider three compounds from patent publication US4309425A (priority 1980, dated 1982).

Like-named read-outs stand apart in the source and are kept apart here.

Experiment [1] relates to Puccinia graminis var. tritici. Put plainly: whole plant or invertebrate. The experiment is classed as in vivo. The settings on record: 192 h, read-out: % control wheat rust in a photostability test.
Experiment [2] deals with Erysiphe cichoracearum. The experiment is described as follows: cucumber powdery mildew photostability test. The experiment is classed as in vivo. The settings on record: Golovinomyces cichoracearum, 168 h, xenon arc 3500 foot candles 16 hours, 7 days. The procedure:
(§1) Compounds of this invention are dissolved in acetone in an amount equal to 6% of the final volume and then suspended at a concentration of 20 ppm in purified water containing 25 ppm of the surfactant Alkanol® XC (sodium alkyl naphthalene sulfonate). This suspension is sprayed to the point of run-off in cucumber seedlings. When the foliage is dry, the plants are exposed to 3500 foot candles of light from a xenon arc source for a period of 16 hours. This light source approximates the spectrum of natural sunlight, and is used to assess photostability of the compounds of this invention on plant foliage. The following day, the plants are inoculated with a spore suspension of the fungus Erysiphe cichoracearum and incubated in a growth room for 7 days. Disease ratings are then made.

Experiment [3] has as its system two-spotted mites. The experiment is described as follows: two-spotted mites on bean plants, spray, mortality after two days. The settings on record: Tetranychus urticae, 48 h, read-out: % Mortality (2 days). Type of experiment: in vivo. How it is done: Mortality was evaluated two days after spraying.
Mortality after two days is set forth below.

The subject of experiment [4] is Erisyphe cichoracearum. Put plainly: cucumber powdery mildew curative test. The experiment is classed as in vivo. The settings on record: Cucumis sativus, 144 h, sprayed day after inoculation, additional 6 days. From the text: Cucumber plants are inoculated with a spore suspension of the fungus Erisyphe cichoracearum and in a growth room overnight. The following day, the plants are sprayed to the point of run-off with a suspension prepared by dissolving compounds of this invention in acetone in an amount equal to 6% of the final volume and then suspended at a concentration of 20 ppm in purified water containing 25 ppm of the surfactant Alkanol® XC (sodium alkyl naphthalene sulfonate). Plants are returned to the growth room for an additional 6 days when disease ratings are then made. […] Phytotoxicity in the form of foliar burn or growth reduction was observed on some of the plants in association with disease control.

In experiment [5] the test system is Phytophthora infestans. The experiment is described as follows: whole plant or invertebrate. The experiment is classed as in vivo. The settings on record: in Solanum lycopersicum, 96 h, read-out: % control tomato late blight in a residual wash-off test.
Experiment [6] deals with Venturia inaequalis. The experiment is described as follows: apple scab preventive test. Type of experiment: in vivo. The settings on record: 10-12 days. The procedure: (§2) Compounds of this invention are dissolved in acetone in an amount equal to 6% of the final volume and then suspended at a concentration of 20 ppm in purified water containing 25 ppm of the surfactant Alkanol® XC (sodium alkyl naphthalene sulfonate). This suspension is sprayed to the point of run-off on apple seedlings. The following day, the plants are inoculated with a spore suspension of the fungus Venturia inaequalis and incubated in a growth room for 10-12 days. Disease ratings are then made. […] Phytotoxicity in the form of foliar burn was observed on some of the plants in association with disease control.

The subject of experiment [7] is Erysiphe cichoracearum. Put plainly: cucumber powdery mildew preventive test. Type of experiment: in vivo. The settings on record: Golovinomyces cichoracearum, 168 h, 7 days. How it is done: as §2, with “cucumber” for “apple”, “Erysiphe cichoracearum” for “Venturia inaequalis”, “7” for “10-12”, “burn or growth reduction” for “burn”
In experiment [8] the test system is Erysiphe cichoracearum. The experiment is described as follows: cucumber powdery mildew residual wash-off test. Type of experiment: in vivo. The settings on record: Golovinomyces cichoracearum, 168 h, 1/2 inch simulated rainfall, 7 days. How it is done:
Compounds of this invention are dissolved in acetone in an amount equal to 6% of the final volume and then suspended at a concentration of 20 ppm in purified water containing 25 ppm of the surfactant Alkanol® XC (sodium alkyl naphthalene sulfonate). This suspension is sprayed to the point of run-off on cucumber seedlings. The following day, 1/2 inch of simulated rainfall is applied to the foliage of the plants. When the foliage is dry, the plants are inoculated with a spore suspension on the fungus Erysiphe cichoracearum and incubated in a growth room for 7 days. Disease ratings are then made.

Experiment [9] relates to Venturia inaequalis. Put plainly: apple scab residual wash-off test. Type of experiment: in vivo. The settings on record: 1/2 inch simulated rainfall, 10-12 days. How it is done: as §2, with “day, 1/2 inch of simulated rainfall is applied to the foliage of the plants. When the foliage is dry,” for “day,”, “on” for “on some of”
The test system of experiment [10] is Sclerotinia sclerotiorum. Put plainly: white mold on carrot sections dip test. The settings on record: 100 ppm dip, 20° C., six days. How it is done: Surface-sterilized carrot sections were dipped two minutes in a 100 ppm solution of the compounds of this invention. Additional sections were dipped in a check solution which contained 500 ppm Alkanol® XC (sodium alkyl naphthalene sulfonate). After inoculation by placing a mycelial plug of Sclerotinia sclerotiorum on each carrot section, the test was held at 20° C. for six days.
The untreated carrot sections were completely invaded with the mycelial growth of white mold fungus, but the treated sections had little or no growth by this disease causing organism.

Experiment [11] relates to organo-phosphorous resistant two-spotted spider mites. The experiment is described as follows: organo-phosphorous resistant two-spotted spider mites on bean plants, spray, mortality after two days. The settings on record: Tetranychus urticae, 48 h, read-out: % Mortality (2 days).
Experiment [12] deals with Phytophthora infestans. The experiment is described as follows: whole plant or invertebrate. The experiment is classed as in vivo. The settings on record: in Solanum lycopersicum, 96 h, read-out: % control tomato late blight in a photostability test.
Experiment [13] deals with Venturia inaequalis. The experiment is described as follows: apple scab photostability test. The experiment is classed as in vivo. The settings on record: xenon arc 3500 foot candles 16 hours, 10-12 days. The procedure:
as §1, with “on apple” for “in cucumber”, “Venturia inaequalis” for “Erysiphe cichoracearum”, “10-12” for “7”, “made. […] Phytotoxicity in the form of foliar burn was observed on some of the plants in association with disease control.” for “made.”

Experiment [14] relates to Puccinia graminis var. tritici. Put plainly: whole plant or invertebrate. Type of experiment: in vivo. The settings on record: 192 h, read-out: % control wheat rust in residual wash-off test.
Experiment [15] relates to Rhizopus. Put plainly: Rhizopus-corn meal mixture overspray test. The settings on record: 168 h, read-out: % control Rhizopus. How it is done:
Compounds of this invention were dissolved in acetone in an amount equal to 6% of final volume and then suspended at a concentration of 100 ppm in purified water containing 500 ppm of the surfactant Alkanol® XC (sodium alkyl naphthalene sulfonate). This solution was oversprayed on a Rhizopus-corn meal mixture in 6 cm aluminum cups. The sprayed plates were placed in a closed plastic bag, stored at 20° C. for 7 days, and then rated.
The untreated cups were completely covered with Rhizopus mycelial growth, but the treated cups were mostly free of growth by this disease-causing organism.

The test system of experiment [16] is Puccinia graminis var. tritici. Put plainly: whole plant or invertebrate. Type of experiment: in vivo. The settings on record: 192 h, read-out: % control wheat rust in preventive test.
The subject of experiment [17] is Pythium. Put plainly: Pythium infested soil test, cotton. Type of experiment: in vivo. The settings on record: 1.5 kg/ha, 8 days. The text has this:
Pythium infested soil was placed in a 900 cc cup. Compounds of this invention were mixed at a rate of 1.5 kg/ha in a section 2" wide×2" deep×4" long to simulate an in-the-row application. Five cotton seeds were planted in the treated soil. After 8 days, the cotton plants were removed and rated for disease control.

In experiment [18] the test system is Rhizoctonia solani. Put plainly: Rhizoctonia solani infested soil test, cotton. The experiment is classed as in vivo. The settings on record: 192 h, 1.5 kg/ha, 8 days. The text has this:
Rhizoctonia solani-infested soil was placed in a 900 cc cup. Compounds of this invention were mixed at a rate of 1.5 kg/ha in a section 2" wide×2" deep×4" long to simulate an in-the-row application. Five cotton seeds were planted in the treated soil. After 8 days, the cotton plants were removed and rated for disease control.

Experiment [19] deals with Phytophthora infestans. Type of experiment: in vivo. The settings on record: 20 ppm, 4 days.
Experiment [20] relates to adult cotton boll weevils (Anthonomus grandis). The experiment is described as follows: adult cotton boll weevils spray test. Type of experiment: in vivo. The settings on record: 1% acetone solution, 24 hours. How it is done:
Five adult cotton boll weevils (Anthonomus grandis) were confined in a 4-oz. wide mouth jar. These were sprayed with a 1% acetone solution of the indicated compounds. Percent mortality after 24 hours is set forth below.

Experiment [21] relates to adult houseflies. The experiment is described as follows: adult houseflies spray test. Type of experiment: in vivo, housefly. The settings on record: Musca domestica; 1% acetone solutions, 24 hours. From the text:
Twenty adult houseflies were confined in each of several cylindrical stainless steel cages (7.5 cm D×4 cm high) with wire screens of the ends. These were sprayed with 1% acetone solutions of the indicated compounds.

Experiment [22] relates to Eggs of the beet armyworm (Spodoptera exigua). Put plainly: beet armyworm egg (ovicidal) test, % eggs failing to hatch. Type of experiment: in vivo. The settings on record: 72 h, 200 ppm in acetone, three days, read-out: % Control (% eggs failing to hatch). The procedure: Eggs of the beet armyworm (Spodoptera exigua), laid on cellophane discs each containing 50-75 eggs, were placed in petri dishes and lightly sprayed with 1% concentrations of the indicated compounds in acetone solution. Three days later, percent control (% eggs failing to hatch) was determined.
Eggs of the beet armyworm (Spodoptera exigua), laid on cellophane discs each containing 50-75 eggs, were placed in petri dishes and lightly sprayed with 200 ppm concentration of the indicated compounds in acetone solution. Three days later, percent control (% eggs failing to hatch) was determined.

Experiment [23] relates to red-legged grasshoppers (Melanoplus femurrubrum). Put plainly: red-legged grasshoppers spray test. Type of experiment: in vivo. The settings on record: 10 ppm in acetone, 48 hours. How it is done:
Five red-legged grasshoppers (Melanoplus femurrubrum) were confined in each of several cylindrical stainless steel cages (7.5 cm D×4 cm high) with wire screens at the end. These were sprayed with 10 ppm concentration of the indicated compounds in acetone solution. Percent mortality after 48 hours is recorded below.

Experiment [24] deals with brown dog ticks (Rhipicephalus sanguineus). Put plainly: brown dog ticks spray test. The experiment is classed as in vivo. The settings on record: 48 h, 12.5 ppm in acetone, forty eight hours. The procedure:
Four-ounce wide mouth jars, each containing 10 brown dog ticks (Rhipicephalus sanguineus), were sprayed with 12.5 ppm concentration of the indicated compounds in acetone solution. The ticks were confined with caps which were also sprayed. Forty eight hours later, percent mortality was determined.

For `Cc1ccc(S(=O)(=O)N(SN(c2cc(C(F)(F)F)ccc2Cl)c2c([N+](=O)[O-])cc([N+](=O)[O-])cc2C(F)(F)F)C(C)C)cc1`, the pest or weed control at 20 ppm in experiment [1] is 80%; in experiment [2] it was 40%; in [4], 90%; in [5], 100%; in experiment [6] it was 100%; in [7] it was 100%. The pest or weed control at 20 ppm was 99% in experiment [8]; 100% in experiment [9]; 90% in experiment [12]; 0% in [13]; 97% in [14]; 100% in [16]. For the same compound, in experiment [3] (spray concentration .00025%), the mortality at 0.00025 % was determined as 100%. Besides, the mortality at 0.0005 % is 100% in [3] (spray concentration .0005%) and 83% in experiment [11]. Moreover, the mortality at 0.001 % was 100% in [3] (spray concentration .001%) and 99% in experiment [11]. Besides, in [10], the “% control White Mold” value came out at 100%. For the same compound, the mortality at 0.002 % in [11] was 99%. For the same compound, the inhibition of growth at 100 ppm in experiment [15] turned out to be 100%.
As for `Cc1ccc(S(=O)(=O)N(C)SN(c2c(F)cc(F)cc2F)c2c([N+](=O)[O-])cc([N+](=O)[O-])cc2C(F)(F)F)cc1`, the pest or weed control at 20 ppm turned out to be 70% in experiment [1]; 100% in [2]; 99% in experiment [4]; 100% in experiment [5]; 100% in experiment [6]; 100% in [7]. The pest or weed control at 20 ppm in [8] is 100%; in [9] it was 100%; in [12], 100%; in experiment [13], 80%; in experiment [14], 97%; in experiment [16], 100%. Further, the “% control Pythium” value in experiment [17] came out at 100%. This compound returned a pest or weed control at 1500 g/ha in experiment [18] of 70%. Moreover, the “% control tomato late blight in a preventive test” value in experiment [19] is given as 100%.
Turning to `CCCCN(SN(c1cc(C(F)(F)F)ccc1Cl)c1c([N+](=O)[O-])cc([N+](=O)[O-])cc1C(F)(F)F)S(=O)(=O)c1ccccc1`, the pest or weed control at 20 ppm in experiment [1] turned out to be 90%; in experiment [2] it was 0%; in experiment [4], 50%; in experiment [5] it was 100%; in [6], 100%; in experiment [7], 100%. Also, the pest or weed control at 20 ppm was 98% in experiment [8]; 100% in experiment [9]; 90% in experiment [12]; 0% in experiment [13]; 97% in experiment [14]; 100% in experiment [16]. For the same compound, the mortality at 1 % in experiment [20] and in experiment [21] was 100% throughout. In experiment [22], the mortality at 200 ppm was 100%. In experiment [23], this compound displayed a mortality at 10 ppm of 100%. For the same compound, in experiment [24], the mortality at 12.5 ppm was 100%. Also, the “% control White Mold” value in experiment [10] was 86%.
